Assays:
[1] = test system: blood flow in the optic nerve head; settings: literature: Nichi-Gan Kaishi Vol. 100, No. 12, p. 923, 1996; cited from earlier work
[2] = test system: blood pressure and heart rate; assay: Mean blood pressure and heart rate in rabbits (post auricular artery catheter); type: in vivo; settings: rabbit
Description: (§1) Male New Zealand White rabbits (weighing 2.3-3.1 kg) were housed in an OSHIDA-type solid box and the left auricula was locally anesthetized with Xylocaine Spray (trademark, manufactured by Fujisawa Pharmaceutical) and Xylocaine Jelly (trademark, manufactured by Fujisawa Pharmaceutical), and a catheter (Polyethylene Tube SP28, manufactured by Natsume) were inserted into the post auricular artery for measuring the blood pressure and the heart rate, and the blood pressure and the heart rate were continuously recorded with a recorder (WT-645G, manufactured by Nihon-Koden). Under the local anesthesia, a catheter for administering the test drug (Polyethylene Tube SP31, manufactured by Natsume) was likewise inserted into the right post auricular vein of the animal.
(§2) The change of the value between the data after administration of drug or vehicle and the data before the administration of drug or vehicle was determined, and for each item, the mean values and standard deviation in six animals in each test were determined, and the results are shown in the accompanying FIG. 1 to FIG. 8. The significant test of the test drug was done by t-test at each time of measurement compared to the data in the control group administered with vehicle. The significant standards are indicated separately in the group of less than 5% and the group of less than 1%.

intraocular pressure = assay: Measurement of intraocular pressure in rabbits (pneumatonometer); type: in vivo; settings: rabbit; 0.003, 0.01 and 0.03 mg/kg, i.v.
Protocol: as §2, with “2) Measurement of Intraocular Pressure The intraocular pressure was measured on the left eye at each time when the above NB values were measured after the administration of drug or vehicle (excepting 5 minutes after administration, the intraocular pressure was not measured) after dropping a 0.4% solution of Benoxil (trademark, manufactured by Santen Pharmaceutical) by using a calibrated pneumatonometer (Alcon Application Pneumatonograph, manufactured by Nippon Alcon). The change” for “The change”

[3] = test system: blood flow in the optic nerve head; assay: Blood flow in the optic nerve head by laser speckle technique (rate of change of NB value); type: in vivo; settings: rabbit, i.v.
Protocol: The optic nerve head circulation improving activity was measured by using as an index the rate of change of NB value as mentioned hereinafter.
1) Measurement of Blood Flow in the Optic Nerve Head by Laser Speckle Technique
as §1
The blood flow of the optic nerve head was measured by selecting a portion having no surface blood vessel at the right optic nerve head [0.42×0.42 mm (field angle 30°) with an eyegrounds circulation analyzer (Laser speckle circulation analyzer-II: LSCA-II), measuring the mean value of the quantitative index of blurring in whole field (100×100) [NB value (normalized blur value)], and calculating the rate of change (%) of the NB value by the following equation: [formula]
By the way, the test drug was prepared by adding a 20% dimethylacetamide solution containing 2% tartaric acid to a drug to be tested so as to adjust the ad ministration volume thereof to 0.1 ml/kg and dissolving the mixture by adding thereto a hot water.
The change of the value between the data after administration of drug or vehicle and the data before the administration of drug or vehicle was determined, and for each item, the mean values and standard deviation in six animals in each test were determined, and the results are shown in the accompanying FIG. 1 to FIG. 8. […]

[4] = test system: side effects (objective and subjective symptoms); assay: Side effect-manifestation in aged and younger persons; type: in vivo; settings: human
[5] = Measurement of plasma concentration of drug in rabbit (gas chromatography); type: in vivo; settings: Lomerizine hydrochloride 0.03 mg/kg, i.v.
Protocol: Under the same conditions as in the above Example 1, the plasma concentration of Lomerizine in the groups administered with Lomerizine hydrochloride (0.03 mg/kg, i.v.) 5, 15, 30 and 60 minutes after the administration of the drug as follows.
Male New Zealand White rabbits (weighing 2.5-3.5 kg, 3 animals per group) were placed in an OSHIDA-type solid box. A solution of Lomerizine hydrochloride (in an amount so as to be 0.03 mg/kg) in a 20% dimethylacetamide containing 2% tartaric acid was prepared and was administered to the right post auricular vein of the animals. Thereafter, blood sampling was done from left post auricular vein 5, 15, 30 and 60 minutes after the administration of test drug. The collected blood sample was centrifuged (4° C., 3000 rpm×10 minutes) to obtain a plasma sample, and then the amount of Lomerizine in the plasma was measured by gas chromatography.
The gas chromatography was carried out under the following conditions:
GC-14B type gas chromatograph (manufactured by Shimadzu Corporation)
FTD Detector (Shimadzu FTD-8, manufactured by Shimadzu Corporation)
Conditions for Measurement:
Column: Shimadzu CBP1-M25-025 (25m×0.2mm, thickness of membrane: 0.25 μm)
Injection port temperature: 310° C.
Column temperature: 285° C.
Detector temperature: 310° C.
Carrier gas: Helium (2.30 kg/m^2)
Make up gas: Helium (flow rate: 40 ml/minute)
H2 flow rate: 3.8 ml/minute
Air flow rate: 160 ml/minute

[6] = 0.03 mg/kg, i.v., 15 minutes after the administration

Row | Molecule | action on the optic nerve head (blood flow) [1] | heart rate vs vehicle [2, 6] | hypotensive activity (mean blood pressure) vs vehicle [2, 6] | hypotensive activity (mean blood pressure) vs vehicle ([2]; 0.01 and 0.03 mg/kg, i.v., 5 minutes after the administration) | heart rate vs vehicle ([2]; 0.01 and 0.03 mg/kg, i.v., 30 minutes after the administration) | heart rate vs vehicle ([2]; all groups (0.003, 0.01 and 0.03 mg/kg, i.v.), 5 minutes after the administration) | action on the intraocular pressure (intraocular pressure) | increasing activity of blood flow in the optic nerve head (rate of change of NB value) vs vehicle ([3]; 0.03 mg/kg, 30 minutes after the administration) | increasing activity of blood flow in the optic nerve head (rate of change of NB value) vs vehicle ([3]; 0.003, 0.01 and 0.03 mg/kg, significant 5 minutes after the administration) | increasing activity of blood flow in the optic nerve head (rate of change of NB value) vs vehicle ([3]; 0.003 and 0.03 mg/kg, 15 minutes after the administration) | side effect-manifestation in aged persons (65-85 years old) compared with younger persons (15-64 years old) [4] | Concentration of Lomerizine in Plasma, Mean ± Standard deviation ([5]; 5 minutes after administration) | Concentration of Lomerizine in Plasma, Mean ± Standard deviation ([5]; 15 minutes after administration) | Concentration of Lomerizine in Plasma, Mean ± Standard deviation ([5]; 30 minutes after administration)
1 | COC(=O)C1=C(C#N)NC(C)=C(C(=O)OC(C)C)C1c1cccc([N+](=O)[O-])c1 (centres unmarked) [Nilvadipine] | an activity of increasing blood flow | significant increase | significant hypotensive activity | significant hypotensive activity | significant increase | significant increase | no clear action | significant increasing activity | higher increasing activity | significant increasing activity |  |  |  | 
2 | Lomerizine |  |  |  |  |  |  |  |  |  |  | not so different | 19.8 ± 6.5 ng/mL | 8.1 ± 2.4 ng/mL | 4.9 ± 2.4 ng/mL
